Experimental data as given in patent publication US8178690B2, “Compounds and methods for inhibiting the interaction of BCL proteins with binding partners” (Infinity Pharmaceuticals, Inc., priority 2006, dated 2012).

Tests used:
Bcl-xL = Bcl-xL (Homo sapiens, UniProt Q07817); experiment: Bcl-xL binding affinity analysis (fluorescence polarization binding assay); conditions: read-out: BcI-XI (Ki, Bcl-xL binding affinity)
Bcl-2 = Bcl-2 (Homo sapiens, UniProt P10415); experiment: Bcl-2 binding affinity analysis (fluorescence polarization binding assay); conditions: read-out: BcI2 (Ki, Bcl-2 binding affinity)
Sequence of Bcl-2 (P10415 whole entry): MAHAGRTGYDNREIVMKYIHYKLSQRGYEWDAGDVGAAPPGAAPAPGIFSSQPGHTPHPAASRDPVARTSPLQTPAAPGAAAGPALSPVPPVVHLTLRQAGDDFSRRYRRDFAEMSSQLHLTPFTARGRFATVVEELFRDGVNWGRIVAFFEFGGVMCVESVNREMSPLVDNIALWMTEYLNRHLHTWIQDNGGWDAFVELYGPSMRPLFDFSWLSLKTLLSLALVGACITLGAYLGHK

Sequence of Bcl-xL (Q07817 whole entry): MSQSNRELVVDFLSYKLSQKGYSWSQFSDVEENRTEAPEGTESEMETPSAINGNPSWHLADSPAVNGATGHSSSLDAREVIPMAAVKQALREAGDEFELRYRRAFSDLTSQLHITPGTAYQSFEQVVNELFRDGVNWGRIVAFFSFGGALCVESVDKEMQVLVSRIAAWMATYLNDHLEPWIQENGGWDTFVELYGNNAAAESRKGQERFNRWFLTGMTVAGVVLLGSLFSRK

Structure (SMILES): CNC(=O)CN(C)c1cc(C(=O)N[C@@H](Cc2ccccc2)CN(C)C)cc(-c2cccc(CN3O[C@@H](CO)[C@@H]([C@H](C)O)[C@H]3C(=O)N[C@H]3C[C@H]4C[C@@H]([C@@H]3C)C4(C)C)c2OC)c1 [Compound 309]
- Ki (Bcl-xL): < 1 µM
- Ki (Bcl-2): < 0.001 µM

Structure (SMILES): COc1c(CN2O[C@@H](CO)[C@@H]([C@H](C)O)[C@H]2C(=O)N[C@H]2C[C@H]3C[C@@H]([C@@H]2C)C3(C)C)cccc1-c1cc(C(=O)N[C@@H](Cc2ccccc2)CN(C)C)cc(N(C)CC(N)=O)c1 [Compound 310]
- Ki (Bcl-xL): < 1 µM
- Ki (Bcl-2): < 0.001 µM

Structure (SMILES): COc1c(CN2O[C@@H](CO)[C@@H]([C@H](C)O)[C@H]2C(=O)N[C@H]2C[C@H]3C[C@@H]([C@@H]2C)C3(C)C)cccc1-c1cc(C(=O)N(C)[C@@H](Cc2ccccc2)CN(C)C)cc(N(C)C)c1 [Compound 311]
- Ki (Bcl-xL): < 1 µM
- Ki (Bcl-2): < 0.001 µM

Structure (SMILES): CCN1CCC[C@@H]1CNC(=O)c1cc(-c2cccc(CN3O[C@@H](CO)[C@@H]([C@H](C)O)[C@H]3C(=O)N[C@H]3C[C@H]4C[C@@H]([C@@H]3C)C4(C)C)c2OC)cc(N(C)C)c1 [Compound 312]
- Ki (Bcl-xL): < 1 µM
- Ki (Bcl-2): < 0.001 µM

Structure (SMILES): COc1c(CN2O[C@@H](CO)[C@@H]([C@H](C)O)[C@H]2C(=O)N[C@H]2C[C@H]3C[C@@H]([C@@H]2C)C3(C)C)cccc1-c1cc(C(=O)N[C@H](Cc2ccccc2)CN2CCN(C)CC2)cc(N(C)C)c1 [Compound 313]
- Ki (Bcl-xL): < 1 µM
- Ki (Bcl-2): < 0.001 µM

Structure (SMILES): COc1c(CN2O[C@@H](CO)[C@@H]([C@H](C)O)[C@H]2C(=O)N[C@H]2C[C@H]3C[C@@H]([C@@H]2C)C3(C)C)cccc1-c1cc(C(=O)N[C@@H](CC(C)C)CN2CCN(C)CC2)cc(N(C)C)c1 [Compound 314]
- Ki (Bcl-xL): < 1 µM
- Ki (Bcl-2): < 0.001 µM

Structure (SMILES): COc1c(CN2O[C@@H](CO)[C@@H]([C@H](C)O)[C@H]2C(=O)N[C@H]2C[C@H]3C[C@@H]([C@@H]2C)C3(C)C)cccc1-c1cc(C(=O)N[C@@H](CC(C)C)CN2CCCC2)cc(N(C)C)c1 [Compound 320]
- Ki (Bcl-xL): < 1 µM
- Ki (Bcl-2): < 0.001 µM

Structure (SMILES): COc1c(CN2O[C@@H](CO)[C@@H]([C@H](C)O)[C@H]2C(=O)N[C@H]2C[C@H]3C[C@@H]([C@@H]2C)C3(C)C)cc(Cl)cc1-c1cc(C(=O)NCCc2ccccc2)cc(N(C)C)c1 [Compound 321]
- Ki (Bcl-xL): 5 to 10 µM
- Ki (Bcl-2): > 0.009 µM
